Source: patent US9018207B2, “Method of treatment or prophylaxis” (Spinifex Pharmaceuticals Pty Ltd, priority 2004, dated 2015)
Entries after “also recorded” stand apart in the source; their conditions may differ.

Assays:
Type in all cases: in vivo, Sprague-Dawley (SD) rats
[1] = tested on: rats with a chronic constriction injury (CCI) of the sciatic nerve; assay: Relief of tactile allodynia (von Frey paw withdrawal thresholds) in the ipsilateral (injured) hindpaw of CCI-rats
Method: (§1) Adult male Sprague-Dawley (SD) rats were anaesthetized with Zoletil 100® (0.09 ml/200 g) and Xylazil-20™ (0.1 mL/200 g) administered by intraperitoneal (i.p.) injection, and a chronic constriction injury (CCI) of the sciatic nerve was produced according to the method of Bennett and Xie (1988). Briefly, the left common sciatic nerve was exposed at mid-thigh level by blunt dissection through the biceps femoris. Proximal to the trifurcation, 10 mm of nerve was freed of adhering tissue and four loose ligatures (3.0 silk) were tied around the sciatic nerve 1 mm apart). The incision was closed in layers. After surgery, rats received benzylpenicillin (60 mg s.c.) to prevent infection and were kept warm during surgical recovery. Rats were housed singly for 10-14 days prior to AT2 receptor antagonist or vehicle (normal saline) administration. After CCI-surgery, rats were inspected daily with regard to posture of the affected hindpaw, exploring behavior, body weight and water intake, and any signs of autotomy. Whilst under light anaesthesia with CO2/O2 (50:50%), CCI-rats or STZ-diabetic rats received a single bolus injection (200 μL) of one AT2 receptor antagonist (PD123,319 or L-159,686) by the intravenous (i.v.) or the intraperitoneal (i.p.) route, using a 250 μL Hamilton syringe. The test compounds were administered to CCI-rats at 14 days after CCI-surgery and to STZ-diabetic rats at approximately 8-wks after the induction of diabetes with STZ. Relief of tactile (mechanical) allodynia, the defining symptom of neuropathic pain, by each of the test agents, PD123,319 or L-159,686, was quantified using calibrated von Frey filaments as described below. Tactile allodynia was quantified using calibrated von Frey filaments. Rats were placed in wire mesh testing cages (20 cm×20 cm×20 cm) and allowed to acclimatise for approximately […] Von Frey filaments were used to determine the lowest mechanical threshold required for a brisk paw withdrawal reflex. Briefly, the filament that produced the lowest force was applied to the plantar surface of the hindpaw until the filament buckled slightly. Absence of a response after 5 s prompted use of the next filament in an ascending sequence. Filaments used produced a buckling weight of 2, 4, 6, 8, 10, 12, 14, 16, 18 and 20 g and these were calibrated prior to each testing session. […] For CCI-rats, baseline von Frey paw withdrawal thresholds (PWTs) were quantified prior to CCI-surgery, and at 14 days post-surgery immediately prior to drug administration. For STZ-diabetic rats, baseline von Frey PWT values were determined prior to the induction of diabetes with STZ and at 1-2 weekly intervals thereafter for 8 weeks to document the temporal development of tactile allodynia. For all rats, baseline PWTs were the mean of three readings taken, 5 min apart before drug administration and were determined separately for each hindpaw. After administration of each test compound, von Frey PWTs were determined at the following post-dosing times: 0.08, 0.25, 0.5, 0.75, 1, 1.25, 1.5, 2 and 3 h. Paw withdrawal thresholds (PWTs; g) were plotted against time to construct response versus time curves for each of the two test compounds (PD123,319 and L-159,686) for each dose and dosing route. Whilst adult male SD rats were anaesthetized with 3% isoflurane: 97% oxygen, four loose ligatures were tied around one sciatic nerve to produce a unilateral chronic constriction injury (CCI) according to the method of Bennett and Xie (1988, Pain 33: 87-107). Briefly, the left common sciatic nerve was exposed at mid-thigh level by blunt dissection through the biceps femoris. Proximal to the trifurcation, 10 mm of nerve was freed of adhering tissue and four loose ligatures (3.0 silk) were tied around the sciatic nerve 1 mm apart). The incision was closed in layers. After surgery, rats received benzylpenicillin (60 mg s.c.) to prevent infection and were kept warm during surgical recovery. […]

[2] = tested on: rats with a chronic constriction injury (CCI) of the sciatic nerve; assay: Antinociception (von Frey paw withdrawal thresholds) in the contralateral hindpaw of CCI-rats; conditions: i.p. doses up to 30 μg/kg
Method: as §1, with “87-107).” for “87-107). Briefly, the left common sciatic nerve was exposed at mid-thigh level by blunt dissection through the biceps femoris. Proximal to the trifurcation, 10 mm of nerve was freed of adhering tissue and four loose ligatures (3.0 silk) were tied around the sciatic nerve 1 mm apart). The incision was closed in layers. After surgery, rats received benzylpenicillin (60 mg s.c.) to prevent infection and were kept warm during surgical recovery.”

[3] = tested on: STZ-diabetic rats; assay: Relief of tactile allodynia (von Frey paw withdrawal thresholds) in the hindpaws of STZ-diabetic rats (model of PDN)
Method: Adult male SD rats were anaesthetized in a manner similar to that described above, to facilitate insertion of a polyethylene cannula (previously filled with 0.1 ml of sterile saline) into the right common jugular vein. Jugular vein cannulae were tested for correct placement by the withdrawal of a small amount of blood. Diabetes was induced following an acute i.v. injection of streptozotocin (STZ) (80 mg/kg) in 0.1 M citrate buffer (pH 4.5) into the jugular vein. Diabetes was confirmed by monitoring the water intake and blood glucose concentration in individual rats. Blood glucose was monitored using either (Glucostix™) or a Precision QID™ test kit.
Consistent with previous studies in the literature (Calcutt et al., 1996, Pain. 68(2-3):293-9), rats that drank more than 100 mL of water per day by 10 days post-STZ injection, were classified as diabetic, and only rats with blood glucose concentrations exceeding 15 mM were included in the subsequent experiments. By comparison, the water intake of control non-diabetic rats was approximately 20 mL per day and blood glucose concentrations were in the range 5-6 mM, consistent with the literature (Calcutt et al., 1996, supra).
Whilst under light anaesthesia with CO2/O2 (50:50%), CCI-rats or STZ-diabetic rats received a single bolus injection (200 μL) of one AT2 receptor antagonist (PD123,319 or L-159,686) by the intravenous (i.v.) or the intraperitoneal (i.p.) route, using a 250 μL Hamilton syringe. The test compounds were administered to CCI-rats at 14 days after CCI-surgery and to STZ-diabetic rats at approximately 8-wks after the induction of diabetes with STZ. Relief of tactile (mechanical) allodynia, the defining symptom of neuropathic pain, by each of the test agents, PD123,319 or L-159,686, was quantified using calibrated von Frey filaments as described below.
Tactile allodynia was quantified using calibrated von Frey filaments. Rats were placed in wire mesh testing cages (20 cm×20 cm×20 cm) and allowed to acclimatise for approximately […] Von Frey filaments were used to determine the lowest mechanical threshold required for a brisk paw withdrawal reflex. Briefly, the filament that produced the lowest force was applied to the plantar surface of the hindpaw until the filament buckled slightly. Absence of a response after 5 s prompted use of the next filament in an ascending sequence. Filaments used produced a buckling weight of 2, 4, 6, 8, 10, 12, 14, 16, 18 and 20 g and these were calibrated prior to each testing session.
For CCI-rats, baseline von Frey paw withdrawal thresholds (PWTs) were quantified prior to CCI-surgery, and at 14 days post-surgery immediately prior to drug administration. For STZ-diabetic rats, baseline von Frey PWT values were determined prior to the induction of diabetes with STZ and at 1-2 weekly intervals thereafter for 8 weeks to document the temporal development of tactile allodynia. For all rats, baseline PWTs were the mean of three readings taken, 5 min apart before drug administration and were determined separately for each hindpaw. After administration of each test compound, von Frey PWTs were determined at the following post-dosing times: 0.08, 0.25, 0.5, 0.75, 1, 1.25, 1.5, 2 and 3 h.
Paw withdrawal thresholds (PWTs; g) were plotted against time to construct response versus time curves for each of the two test compounds (PD123,319 and L-159,686) for each dose and dosing route.
Whilst adult male SD rats were anaesthetized with 3% isoflurane: 97% oxygen, a short polyethylene cannula (0.4 mm ID, 0.8 mm OD) was inserted into the jugular vein to facilitate the intravenous (i.v) administration of a single dose of STZ (75 mg/kg). After removal of the i.v. cannula, the jugular vein was tied off, the wound was closed and topical bupivacaine was applied. Rats received benzylpenicillin (60 mg s.c.) to prevent infection and were kept warm during surgical recovery. […]

[4] = tested on: rats with a chronic constriction injury (CCI) of the sciatic nerve; assay: Relief of tactile allodynia (von Frey paw withdrawal thresholds) in the ipsilateral (injured) hindpaw of CCI-rats; conditions: oral bolus 30 μg/kg vs same dose i.p.
[5] = CCI-rats, i.p. bolus 3 to 30 μg/kg
[6] = STZ-diabetic rats, i.p. bolus 1.0 to 100 ng/kg

In the case of `COc1ccc2c(c1OCc1ccccc1)C[C@@H](C(=O)O)N(C(=O)C(c1ccccc1)c1ccccc1)C2` [PD-126,055], the “doses required to produce significant relief of tactile allodynia in CCI-rats compared with STZ-diabetic rats” value ([1]; CCI-rats vs STZ-diabetic rats) is reported as “considerably larger doses”, the duration of action ([1]; CCI-rats, 30 μg/kg, irrespective of dosing route (oral or i.p.)) is reported as about 3 h and the “anti-allodynia (relief of tactile allodynia) in the ipsilateral hindpaw” value [1, 5] is reported as “dose-dependent onset of anti-allodynia; also recorded: dose-dependent relief of tactile allodynia”. For the same compound, the “onset of anti-allodynia in the ipsilateral hindpaw” value [1, 5] was “rapid”, the “time of peak responses post-dosing” value [1, 5] was 0.75 to 1 h and the duration of action ([1]; CCI-rats, i.p., doses larger than 3 μg/kg) was over 3 h. For the same compound, the duration of action ([1]; CCI-rats, i.p., lowest dose tested (3 μg/kg)) was 1.5 h, the “antinociception in the contralateral hindpaw” value [2] was “insignificant antinociception” and the “relief of tactile allodynia (summary in discussion)” value ([3]; STZ-diabetic rat model of PDN, single i.p. bolus doses) was “potent relief of tactile allodynia”. For the same compound, the duration of action [3, 6] was 2 to 3 h, the “onset of action post-dosing” value [3, 6] was 0.5 h and the “relief of tactile allodynia” value [3, 6] was “significant relief of tactile allodynia”. The “time of peak anti-allodynia post-dosing” value [3, 6] was 0.75 to 1.0 h, the “reversal of tactile allodynia in the hindpaws” value ([3]; STZ-diabetic rats, i.p., higher doses tested) was “fully reversed” and the “onset of anti-allodynia (summary in discussion)” value ([3]; STZ-diabetic rats, single i.p. bolus doses) was “relatively rapid onset”. The “extent and duration of the anti-allodynic response, oral compared with i.p. route” value [4] was “similar”.
